Columns and labels:
Type in all cases: cell-based, human
[1] = tested on: L1 ORF1 and ORF2 mRNA in VCaP cells; assay: qPCR of L1 ORF1 and ORF2 mRNA; conditions: for increase in ORF1 and ORF2 expression: 5-day treatment, carboplatin 5 μM or ENZ 10 μM, FIG. 3B
Protocol: (§1) Carboplatin or enzalutamide dissolved in DMSO and culture medium without FBS was added after a 24-hour initial incubation period. To control cells DMSO diluted in culture medium was added to a final concentration of 0.02%. LNCaP prostate cancer cells were transfected with L1 plasmid or positive and negative control plasmids and treated with carboplatin (5 μM) or ENZ (10 μM) the day after transfection, and cells were monitored for five days.
(§2) The isolation of RNA from cell lines was conducted using TriPure Isolation Reagent (Roche) following the manufacturer's protocol. The concentration of the RNA samples was measured using NanoDrop™ One/OneC Microvolume UV-Vis Spectrophotometer, followed by dilution of the samples to 1 μg/μl. The conversion of 1 μg of RNA to cDNA was done using Transcriptor First Strand cDNA Synthesis Kit (Roche) according to the manufacturer's instructions. The RT-PCR run was performed using LightCycler™ 480 SYBR Green I Master (Roche) and The LightCycler® 480 Real-Time PCR System (Roche) with 96-multiwell format. To allow separate analysis of ORF1 and ORF2, two sets of primer pairs were designed to target the L1RP-ORF1 (ORF1 mRNA thereafter), L1RP-ORF2 (ORF2 mRNA thereafter) and FANCI (Table 2). Each run included two biological and two technical replicates per treatment with fold change calculated based on the obtained Ct-values. Normalization was done against GAPDH values measured (Table 2).

[2] = tested on: L1 activity in LNCaP prostate cancer cells; assay: L1-EGFP retrotransposition reporter assay; conditions: carboplatin 5 μM or ENZ 10 μM, 5 days, FIG. 3A
Protocol: FIG. 3. […] (A) The effects of carboplatin (5 μM) or enzalutamide (ENZ, 10 μM) on L1 activity in LNCaP prostate cancer cells analyzed using a retrotransposition L1-EGFP reporter assay and IncuCyte S3 imaging equipped with a green fluorescence channel. Representative IncuCyte cell images are shown for untreated, ENZ, and carboplatin exposed LNCaP cells with green channel only (L1-EGFP) and phase contrast. The control plasmids used included two negative controls (L1Neg-EGFP and L1Mut-EGFP) and a positive control plasmid (L1Pos-EGFP). […] See also FIG. 8. (B) The effects of carboplatin or ENZ on ORF1 and ORF2 mRNA expression in LNCaP, VCaP, PC-3, and 22Rv1 prostate cancer cells. (C) L1 ORF1 and ORF2 mRNA levels from pre- and post-castration xenograft samples from LuCaP 77 and LuCaP 105 (23). […]
FIG. 8. […] (A) The effects of carboplatin (5 μM) or enzalutamide (ENZ, 10 μM) on L1 activity in LNCaP prostate cancer cells analyzed using a retrotransposition L1-EGFP reporter assay and IncuCyte S3 imaging system equipped with a green fluorescence channel. […]
as §1, with “To control cells DMSO diluted in culture medium was added to a final concentration of 0.02%.” left out, “days. […]” for “days.”

[3] = tested on: L1 ORF1 and ORF2 mRNA in LNCaP cells; assay: qPCR of L1 ORF1 and ORF2 mRNA; conditions: for ORF1 and ORF2 mRNA expression compared to control treated cells: 5 days, alone or in combination, AZT 50 μM
Protocol: Carboplatin or enzalutamide dissolved in DMSO and culture medium without FBS was added after a 24-hour initial incubation period. To control cells DMSO diluted in culture medium was added to a final concentration of 0.02%. […]
as §2

L1 ORF1p in LNCaP cells = assay: Western blot of L1 ORF1 protein; conditions: carboplatin alone, or carboplatin with further addition of AZT, FIG. 9D
Protocol: FIG. 9. Further validation of L1 activation and suppression. (A) L1 mRNA levels from pre- and post-castration samples from LuCaP 77 and LuCaP 105 (16). […] Asterisks indicate significant differences between treatment conditions based on t-test (*, p<0.05; **, p<0.01; ***, p<0.001).
Whole cell lysates were prepared using SDS sample buffer (66 mM Tris-HCl pH 6.8, 13% Glyserol, 2.1% SDS and 0.01% Bromophenol Blue) with protease inhibitor added (cOmplete™ Protease Inhibitor Cocktail, Roche).

LNCaP cells = assay: Cell proliferation assay (siRNA knockdown, cell confluence); conditions: 10 μM carboplatin
Protocol: For cell proliferation assays, cells were reverse transfected with 25 nM siRNAs against FANCI (Dharmacon, ON-TARGETplus SMARTpool, L-022320-01-0005) or Scr control (Dharmacon, non-targeting pool), using OPTI-MEM and Lipofectamine 2000 transfection reagent (Invitrogen) in four biological replicates in a 384-well plate. LNCaP cells were plated on the wells (1000 cells/well) in antibiotic free regular growth medium. After 48 h, vehicle control (DMSO) or Carboplatin dilutions were added into wells in appropriate concentrations diluted in FBS free medium and the cell confluence was monitored for five days using live-cell imaging (IncuCyte S3, Sartorius). Cell confluence was determined by automatic counting using IncuCyte S3 Image analysis tools. Cell confluence (confluence mask) on each time point was calculated based on phase-contrast imaging with a minimum area filter of 150 μm2, segmentation adjustment of 1.0, 100 μm2 cleanup and size adjust of −2 pixels. Confluence curves were compared for statistical differences between treatment conditions at each timepoint using t-test.

Row | SMILES | increase in ORF1 and ORF2 expression [1] [fold] | L1 retrotransposition (L1-EGFP reporter, green fluorescence) [2] | ORF1 and ORF2 mRNA induction ([3]; 25-day incubation, ENZ alone or with AZT, FIG. 3D) [fold] | ORF1 and ORF2 mRNA expression compared to control treated cells ([3]; FIG. 3D) | level of L1 ORF1p (Western blot) (L1 ORF1p in LNCaP cells) | ORF1 and ORF2 mRNA expression compared to control treated cells ([1]; 5 days, alone or in combination, AZT 50 μM, FIG. 3D) [fold] | proliferation of siFANCI LNCaP cells on carboplatin exposure (LNCaP cells) | increase in ORF1 and ORF2 expression ([3]; 5-day treatment, carboplatin 5 μM, FIG. 3B)
1 | CNC(=O)c1ccc(N2C(=S)N(c3ccc(C#N)c(C(F)(F)F)c3)C(=O)C2(C)C)cc1F [ENZ, enzalutamide] | 5.5 | relative increase in L1-EGFP reporter, below statistical significance | 8 | no significant changes | – | – | – | –
2 | N.N.O=C([O-])C1(C(=O)[O-])CCC1.[Pt+2] [carboplatin] | 7 | L1 retrotransposition indicated by green fluorescence appeared | – | approximately 4 fold | significantly increased | ~9 | significantly decreased proliferation | approximately 4 fold
